In patent publication US7985764B2, “Amide derivative or salt thereof” (Astellas Pharma Inc., priority 2006, dated 2011):
Where a name gives a salt, the structure may show the parent alone.

Columns and labels:
human 5-HT7 receptor = target: T1, human 5-HT7 receptor (Homo sapiens, UniProt P34969); experiment: 5-HT7 receptor binding test; conditions: human 5-HT7 receptor expressing CHO cell membrane; radio-ligand [3H] 5-HT
T1 construct: expressed in transfected cells; host or cells: CHO
Protocol: Test Method (2) 5-HT7 Receptor Binding Test (i) Preparation of Membrane Sample
Cultured human 5-HT7 receptor expressing CHO cells were washed with PBS(−). The cells were peeled off with a scraper in the presence of PBS(−), and the cells were recovered by centrifugation (1,000 rpm, 10 minutes, 4° C.). In the presence of 5 mM Tris-HCl (pH 7.4) buffer, homogenized using a homogenizer (registered trademark: Polytron (PTA 10-TS)), and centrifugation-treated (40,000×g, 10 minutes, 4° C.). In the presence of 50 mM Tris-HCl (pH 7.4) buffer, suspended using Glass-Teflon (registered trademark) homogenizer. By carrying out centrifugation treatment (40,000×g, 10 minutes, 4° C.), suspended in 50 mM Tris-HCl (pH 7.4) and stored at −80° C.
(§1) (ii) Receptor Binding Test
A total volume of 500 μl containing 50 mM Tris-HCl, a 4 mM CaCl2 (pH 7.4) buffer, a human 5-HT7 receptor expressing CHO cell membrane preparation and a radio-ligand [^3H] 5-HT (3.40 TBq/mmol) was incubated at 25° C. for 1 hour. The compound was dissolved in 100% DMSO and diluted to respective concentrations.
Binding quantity in the presence of 10 μM metergoline was regarded as the nonspecific binding, and a result of subtracting the nonspecific binding quantity from the total binding quantity was regarded as the specific binding quantity. After adding 4 ml of 50 mM Tris-HCl buffer (pH 7.4) and filtering under a reduced pressure using a GF/B glass filter, the filter was washed (4 ml×3) with the same buffer. By soaking the glass filter in 5 ml of a liquid scintillator (trade name: Aquasol-2), the radioactivity quantity was measured using a liquid scintillation counter.

human 5-HT2B receptor = target: T2, human 5-HT2B receptor (Homo sapiens, UniProt P41595); experiment: 5-HT2B receptor binding test; conditions: human 5-HT2B receptor expressing HEK293-EBNA cell membrane; radio-ligand [3H] Mesulergine or [3H] Serotonin
T2 construct: expressed in transfected cells; host or cells: HEK293-EBNA
T2 sequence (P41595 whole entry): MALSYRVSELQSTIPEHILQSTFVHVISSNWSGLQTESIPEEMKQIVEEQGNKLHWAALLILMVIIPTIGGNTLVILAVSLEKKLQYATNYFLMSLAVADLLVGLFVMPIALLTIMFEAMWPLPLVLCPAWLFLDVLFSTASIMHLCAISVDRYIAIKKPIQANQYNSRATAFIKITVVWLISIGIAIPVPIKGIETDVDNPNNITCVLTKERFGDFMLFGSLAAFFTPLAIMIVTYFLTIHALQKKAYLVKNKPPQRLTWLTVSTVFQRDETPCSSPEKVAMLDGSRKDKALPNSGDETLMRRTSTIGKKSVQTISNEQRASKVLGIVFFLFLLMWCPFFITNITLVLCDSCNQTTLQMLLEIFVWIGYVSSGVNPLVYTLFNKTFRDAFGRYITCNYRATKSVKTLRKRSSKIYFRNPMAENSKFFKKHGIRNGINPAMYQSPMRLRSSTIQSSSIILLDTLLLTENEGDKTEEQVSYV
Protocol: Effects of the compound (I) of the present invention were verified by the following pharmacological tests. • Test Method (1) 5-HT2B Receptor Binding Test • (i) Preparation of Membrane Sample
Cultured human 5-HT2B receptor expressing HEK293-EBNA cells were washed with a phosphate buffer (PBS)(−). The cells were peeled off with a scraper in the presence of PBS(−), and the cells were recovered by centrifugation (1,000 rpm, 10 minutes, 4° C.). In the presence of 5 mM tris-hydrochloric acid (Tris-HCl) (pH 7.4) buffer, homogenized using a homogenizer (registered trademark: Polytron (PTA 10-TS)), and centrifugation-treated (40,000×g, 10 minutes, 4° C.). In the presence of 50 mM Tris-HCl (pH 7.4) buffer, suspended using Glass-Teflon (registered trademark) homogenizer. By carrying out centrifugation treatment (40,000×g, 10 minutes, 4° C.), suspended in 50 mM Tris-HCl (pH 7.4) and stored at −80° C.
as §1
A total volume of 500 μl containing 50 mM Tris-HCl, a 4 mM CaCl2 (pH 7.4) buffer, a human 5-HT2B receptor expressing HEK293-EBNA cell membrane preparation and a radio-ligand [^3H] Mesulergine (3.1 TBq/mmol;) or [^3H] Serotonin (5-Hydroxytryptamine) (3.7 TBq/mmol;) was incubated at 25° C. for 1 hour. The compound was dissolved in 100% dimethyl sulfoxide (DMSO) and diluted to respective concentrations. Binding quantity in the presence of 1 μM ritanserin was regarded as the nonspecific binding, and a result of subtracting the nonspecific binding quantity from the total binding quantity was regarded as the specific binding quantity. After adding 4 ml of 50 mM Tris-HCl buffer (pH 7.4) and filtering under a reduced pressure using a GF/B glass filter, the filter was washed (4 ml×3) with the same buffer. By soaking the glass filter in 5 ml of a liquid scintillator (trade name: Aquasol-2), the radioactivity quantity was measured using a liquid scintillation counter. […] Ex represents the Example compound number which is described later.

male Wistar rats = experiment: Defecation suppressing effect at the time of restraint stress loading (rat restraint stress defecation model); assay type: in vivo; conditions: for dose from which a significant suppressing action (number of feces excreted) is shown: p.o.; for defecation-suppressing action: 10 mg/kg p.o., restraint stress loaded 30 minutes after the administration; for number of feces excreted, in comparison with the non-administration group: 1, 3 or 10 mg/kg administration group, N=10
Protocol: Test Method (4) Defecation Suppressing Effect at the Time of Restraint Stress Loading
The IBS-treating effect of the compound (I) of the present invention was evaluated using a test method in which the amount of excreted feces is measured by loading a restraint stress on rats (see “The Journal of Pharmacology Experimental Therapeutics”, (USA), 1992, vol. 261, p. 297-303).
The agent to be tested was administered to male Wistar rats (body weight 250 to 320 g, 10 animals for each group), and a restraint stress was loaded 30 minutes to 3 hours thereafter. A restraint cage (trade name: KN-468, 265 mm in width×95 mm in length×200 mm in height, Natsume Seisakusho, Tokyo) was used for the restraint stress loading, and the number of feces excreted during 1 hour after the stress loading was counted.

5-HT2B receptor = conditions: versus 5-HT1A, 5-HT1B, 5-HT2A, 5-HT2C, 5-HT3, 5-HT6, 5-HT7, α1, M1, D2 and the like; cited from earlier work
[1] = restraint stress loaded 1 hour after the administration

T1 sequence (P34969 whole entry): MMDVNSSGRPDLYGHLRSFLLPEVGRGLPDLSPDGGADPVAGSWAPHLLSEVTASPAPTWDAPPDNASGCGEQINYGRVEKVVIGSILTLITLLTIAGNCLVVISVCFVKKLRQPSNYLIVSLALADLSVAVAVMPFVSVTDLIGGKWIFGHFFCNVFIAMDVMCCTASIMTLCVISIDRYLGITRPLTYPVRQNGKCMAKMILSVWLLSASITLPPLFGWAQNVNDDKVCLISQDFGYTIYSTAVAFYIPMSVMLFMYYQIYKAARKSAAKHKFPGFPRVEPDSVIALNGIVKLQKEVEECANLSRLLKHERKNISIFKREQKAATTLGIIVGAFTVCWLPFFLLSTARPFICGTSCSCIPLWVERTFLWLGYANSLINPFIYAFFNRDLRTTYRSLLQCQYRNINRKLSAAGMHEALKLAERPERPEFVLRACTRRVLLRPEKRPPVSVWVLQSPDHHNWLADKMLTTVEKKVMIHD

| Structure (SMILES) | Ki (human 5-HT7 receptor) | Ki (human 5-HT2B receptor) | also measured |
| --- | --- | --- | --- |
| NC(N)=NC(=O)c1ccc2c(c1)[nH]c(=O)n2Cc1ccc(F)cc1 [Example 10, N-[1-(4-fluoro-benzyl)-2-oxo-2,3-dihydro-1H-benzimidazole-5-carbonyl]-guanidine hydrochloride] | 2.8 nM | 2.7 nM | – |
| Cc1c(C)n(Cc2ccc(F)cc2)c2ccc(C(=O)N=C(N)N)cc12 [Example 24] | 0.66 nM | 0.24 nM | – |
| Cc1c(S(C)(=O)=O)c2cc(C(=O)N=C(N)N)ccc2n1Cc1ccc(F)cc1 [Example 102] | 0.36 nM | 0.12 nM | – |
| CCc1c(C)n(Cc2ccc(F)cc2)c2ccc(C(=O)N=C(N)N)cc12 [Example 103, N-(diaminomethylene)-3-ethyl-1-(4-fluorobenzyl)-2-methyl-1H-indole-5-carboxamide] | 1.3 nM | 0.12 nM | dose from which a significant suppressing action (number of feces excreted) is shown (male Wistar rats; [1]): ≥ 1 mg/kg |
| CC(=O)c1c(C)n(Cc2ccc(F)cc2)c2ccc(C(=O)N=C(N)N)cc12 [Example 104, 3-acetyl-N-(diaminomethylene)-1-(4-fluorobenzyl)-2-methyl-1H-indole-5-carboxamide] | 1.3 nM | 0.088 nM | – |
| Cc1c(C)n(Cc2ccc(F)cc2)c2ccc(C(=O)NCCN(C)C)cc12 [Example 156] | 3.4 nM | 3.4 nM | – |
| CCc1c(C)n(Cc2ccc(F)cc2)c2ccc(C(=O)NCCN(C)C)cc12 [Example 226] | 4.3 nM | 0.19 nM | dose from which a significant suppressing action (number of feces excreted) is shown (male Wistar rats; [1]): ≥ 1 mg/kg |
| CCc1c(C)n(Cc2ccc(F)cc2)c2ccc(C(=O)N[C@H]3CCN(C)C3)cc12 [Example 236] | 2.6 nM | 0.29 nM | dose from which a significant suppressing action (number of feces excreted) is shown (male Wistar rats; restraint stress loaded 3 hours after the administration): ≥ 0.3 mg/kg |
| CCc1c(CC)n(Cc2ccc(F)cc2)c2ccc(C(=O)N[C@H]3CCN(C)C3)cc12 [Example 237] | 4.9 nM | 0.22 nM | – |
| CCc1c(C)n(Cc2ccc(F)cc2)c2ccc(C(=O)N[C@@H]3CCN(C)C3)cc12 [Example 238] | 8 nM | 0.24 nM | – |
| Cc1nc2cc(C(=O)N=C(N)N)ccc2n1Cc1ccc(F)cc1 [Example 244, N-(diaminomethylene)-1-(4-fluorobenzyl)-2-methyl-1H-benzimidazol-5-carboxamide] | – | – | dose from which a significant suppressing action (number of feces excreted) is shown (male Wistar rats; [1]): ≥ 3 mg/kg |
| CC(C)c1cc(-c2ccc(F)c3ccccc23)nc(N)n1 [RS-127445, 2-amino-4-(4-fluoronaphth-1-yl)-6-isopropylpyrimidine, reference compound] | – | – | defecation-suppressing action (male Wistar rats): did not show defecation-suppressing action; number of feces excreted, in comparison with the non-administration group (male Wistar rats): Significant difference was not found; 5-HT2B receptor-selective by a factor (5-HT2B receptor): ≥ 1000 times |
| CC1CCN(CC[C@H]2CCCN2S(=O)(=O)c2cccc(O)c2)CC1 [SB-269970, (R)-3-(2-(2-(4-methylpiperidin-1-yl)ethyl)pyrrolidine-1-sulfonyl)phenol, reference compound] | – | – | defecation-suppressing action (male Wistar rats): did not show the defecation-suppressing action; number of feces excreted, in comparison with the non-administration group (male Wistar rats): Significant difference was not found |
